Source: patent EP0610377B1, “TRI-SUBSTITUTED TETRAHYDROFURAN ANTIFUNGALS” (SCHERING CORPORATION, priority 1991, dated 1993)

Assays:
Assay type in all cases: in vivo
Aspergillus flavus = Aspergillus flavus pulmonary infection model in compromised mice, oral treatment; conditions: 18 days post infection; for %SURVIVAL: compromised CF-1 mice; for CFU-GEO MEAN OF SURVIVORS: geometric mean of the logarithm of CFU remaining in the lung; for %ANIMALS NEG: negative = <10 colonies
C. albicans C-65 = experiment: Candida systemic model in normal and compromised CF1 mice infected with C. albicans C-65, oral treatment; conditions: for CFUs (GM): geometric mean of the logarithms of CFU in the kidneys
Procedure: (§1) The compounds of Examples 23-26 and itraconazole, fluconazole, and saperconazole were tested for in vivo oral antifungal activity in a Candida systemic model using CF1 male mice , average weight 20 g, Harlan Sprague Dawley, Inc., Indianapolis, Ind. infected by IV injection into the tail vein of C. albicans C-43 (5 million CFUs). The drugs were dissolved in polyethylene glycol-200 (PEG-200) and tested by orally administering 50, 25 and 10 mpk of each drug 4 hours post infection and once daily for 3 more days. Oral efficacy was measured after four (4) days by percent survival and by the number of organisms remaining in the kidneys i.e., the Colony Forming Units (CFUs). The mice were sacrificed and the kidneys of individual mice were homogenized in sterile saline, diluted and spread onto Mycosel agar. Colony counts were determined after 48 hours at 37°C. For calculation of geometric means, mice that died during the experiment were considered to have 10^9 CFUs/kidneys (based on numerous previous experiments).
The compounds of Examples 23-24 and itraconazole, fluconazole, were tested for in vivo oral antifungal anctivity in a Candida systemic model using normal and compromised CF1 mice infected with C. albicans C-65 (5 million CFUs). The procedure of Example 33 was followed. The drugs were dissolved in polyethylene glycol-200 ("PEG-200) at room temperature and tested by orally administering 100, 50, 25, 10 and 1 mpk of each drug. Oral efficacy was measured by percent survival and by the number of organisms remaining in the kidneys (CFUs) after four days. […] The pharmaceutical composition of the preferred compound of formula IIb of Eample 24 in hydroxypropyl beta cyclodextrin ("HPβCD") having 7.4 hydroxypropyl groups per HPβCD (obtained from Pharmatec, Inc., Alachua, FL 32615) was prepared by admixing the appropriate amount of the compound IIa with a 40% (w/v) solution of HPβCD (4 g of HPβCD per 10 mL of purified water). Gentle heating was used to form a clear solution. For the 10 mpk dose, 12 mg of Ha was added to 6 mL of a 40% w/v solution of HPβCD. For dilutions, sterile water was added to the solution with mixing. The pharmaceutical composition of itraconazole and the Pharmatec HPβCD described above was prepared as follows. Propylene glycol (10 mL) was admixed with 0.95 mL of concentrated HCI at 40°-45°C with stirring. Itraconazole (2.5 g) was added thereto and stirring was continued until homogeneous. The mixture so formed was cooled to 20° to 30°C and admixed with a solution of 60 g of HPβCD in 40 mL of purified water to form a clear solution. The pH was adjusted to a value of 1.9-2.1 with 10N NaOH and sufficient purified water added (with mixing) to a final volume of 100 mL. For dilutions, sterile water was added to the itraconazole - HPβCD.

C. albicans C-43 = experiment: Candida systemic model in CF1 mice infected IV with C. albicans C-43, oral treatment; conditions: for %SURVIVAL: day 4 post-infection; for CFUs (GM): day 4, geometric mean of the logarithms of CFU remaining in the kidneys (dead mice counted as 10^9)
Procedure: as §1, with “The drugs were dissolved in polyethylene glycol-200 (PEG-200) and tested by orally administering 50, 25 and 10 mpk of each drug 4 hours post infection and once daily for 3 more days.” left out

[1] = 33 mg/kg PO [3RX/DAY] for 4 days
[2] = 100 mg/kg PO once a day for 4 days
[3] = 600 Rads Mice (compromised), 10 MPK PO in PEG-200, 1/day x 4 days, day 4 post-infection
[4] = 600 Rads Mice (compromised), 10 MPK PO in PEG-200, day 4
[5] = 600 Rads Mice (compromised), 25 MPK PO in PEG-200, 1/day x 4 days, day 4 post-infection
[6] = 600 Rads Mice (compromised), 25 MPK PO in PEG-200, day 4
[7] = 600 Rads Mice (compromised), 50 MPK PO in PEG-200, 1/day x 4 days, day 4 post-infection
[8] = 600 Rads Mice (compromised), 50 MPK PO in PEG-200, day 4
[9] = 600 Rads Mice (compromised), 100 MPK PO in PEG-200, 1/day x 4 days, day 4 post-infection
[10] = 600 Rads Mice (compromised), 100 MPK PO in PEG-200, day 4
[11] = Normal Mice, 1 MPK PO in PEG-200, 1/day x 4 days, day 4 post-infection
[12] = Normal Mice, 1 MPK PO in PEG-200, day 4
[13] = Normal Mice, 10 MPK PO in PEG-200, 1/day x 4 days, day 4 post-infection
[14] = Normal Mice, 10 MPK PO in PEG-200, day 4
[15] = Normal Mice, 25 MPK PO in PEG-200, 1/day x 4 days, day 4 post-infection
[16] = Normal Mice, 25 MPK PO in PEG-200, day 4
[17] = Normal Mice, 50 MPK PO in PEG-200, 1/day x 4 days, day 4 post-infection
[18] = Normal Mice, 50 MPK PO in PEG-200, day 4
[19] = 1 MPK PO in PEG-200, 1 a day x 4 days
[20] = 10 MPK PO in PEG-200, 1 a day x 4 days
[21] = 25 MPK PO in PEG-200, 1 a day x 4 days
[22] = 50 MPK PO in PEG-200, 1 a day x 4 days

Row | SMILES | %SURVIVAL (Aspergillus flavus; [1]) | CFU-GEO MEAN OF SURVIVORS (Aspergillus flavus; [1]) | %ANIMALS NEG (Aspergillus flavus; [1]) | CFU-GEO MEAN OF SURVIVORS (Aspergillus flavus; [2]) | % S (Percent Survival) (C. albicans C-65; [3]) | CFUs (GM) (C. albicans C-65; [4]) | % S (Percent Survival) (C. albicans C-65; [5]) | CFUs (GM) (C. albicans C-65; [6]) | % S (Percent Survival) (C. albicans C-65; [7]) | CFUs (GM) (C. albicans C-65; [8]) | % S (Percent Survival) (C. albicans C-65; [9]) | CFUs (GM) (C. albicans C-65; [10]) | % S (Percent Survival) (C. albicans C-65; [11]) | CFUs (GM) (C. albicans C-65; [12]) | % S (Percent Survival) (C. albicans C-65; [13]) | CFUs (GM) (C. albicans C-65; [14]) | % S (Percent Survival) (C. albicans C-65; [15]) | CFUs (GM) (C. albicans C-65; [16]) | % S (Percent Survival) (C. albicans C-65; [17]) | CFUs (GM) (C. albicans C-65; [18]) | other results
1 | CC[C@H](C)n1ncn(-c2ccc(N3CCN(c4ccc(OC[C@@H]5CO[C@@](Cn6cncn6)(c6ccc(F)cc6F)C5)cc4)CC3)cc2)c1=O [Example 24, (-)-[(5R)-cis]-4-[4-[4-[4-[[5-(2,4-Difluorophenyl)-5-(1H-1,2,4-triazol-1-ylmethyl)tetrahydrofuran-3-yl]methoxy]phenyl]-1-piperazinyl]phenyl]-2,4-dihydro-2-[(1S)-(1-methylpropyl)]-3H-1,2,4-triazol-3-one] | 40% | 2.4 | 0% | 1.95 | 0% | 9.00 | 20% | 8.27 | 30% | 7.58 | 80% | 6.28 | 30% | 7.73 | 40% | 7.48 | 90% | 4.67 | 100% | 4.44 | CFU-GEO MEAN OF SURVIVORS (Aspergillus flavus; 66 mg/kg PO once a day for 4 days): 2.25; % S (Percent Survival) (C. albicans C-65; 600 Rads Mice (compromised), 10 MPK PO in Beta-CD, 1/day x 4 days, day 4): 30%; CFUs (GM) (C. albicans C-65; 600 Rads Mice (compromised), 10 MPK PO in Beta-CD, day 4): 7.88; % S (Percent Survival) (C. albicans C-65; Normal Mice, 1 MPK PO in Beta-CD (hydroxypropyl-beta-cyclodextrin), 1/day x 4 days, day 4): 70%; CFUs (GM) (C. albicans C-65; Normal Mice, 1 MPK PO in Beta-CD, day 4): 5.97; % S (Percent Survival) (C. albicans C-65; Normal Mice, 10 MPK PO in Beta-CD (hydroxypropyl-beta-cyclodextrin), 1/day x 4 days, day 4): 100%; CFUs (GM) (C. albicans C-65; Normal Mice, 10 MPK PO in Beta-CD, day 4): 4.94; oral activity in the Candida systemic model compared with itraconazole (C. albicans C-65; doses of 50 and 25 mpk, each drug dissolved in PEG-200, result in words): more active orally; activity against systemic candidiasis compared with itraconazole and saperconazole (C. albicans C-65; normal and compromised mice, result in words (text refers to Tables II and V)): more active; %SURVIVAL (C. albicans C-43; [19]): 30%; CFUs (GM) (C. albicans C-43; 1 MPK PO in PEG-200): 7.88; %SURVIVAL (C. albicans C-43; [20]): 40%; CFUs (GM) (C. albicans C-43; 10 MPK PO in PEG-200): 7.42; %SURVIVAL (C. albicans C-43; [21]): 100%; CFUs (GM) (C. albicans C-43; 25 MPK PO in PEG-200): 5.14; %SURVIVAL (C. albicans C-43; [22]): 100%; CFUs (GM) (C. albicans C-43; 50 MPK PO in PEG-200): 4.99; oral activity in the Candida systemic model compared with itraconazole (C. albicans C-43; doses of 50, 25 and 10 mpk, each dissolved in PEG-200, result in words): more active orally
2 | CC[C@@H](C)n1ncn(-c2ccc(N3CCN(c4ccc(OC[C@@H]5CO[C@@](Cn6cncn6)(c6ccc(F)cc6F)C5)cc4)CC3)cc2)c1=O [Example 23] | 60% | 1.08 | 10% | 1.85 | 0% | 9.00 | 20% | 8.65 | 30% | 7.33 | 50% | 6.43 | 0% | 9.00 | 30% | 7.12 | 60% | 5.74 | 90% | 4.69 | %SURVIVAL (C. albicans C-43; [19]): 10%; CFUs (GM) (C. albicans C-43; 1 MPK PO in PEG-200): 8.57; %SURVIVAL (C. albicans C-43; [20]): 50%; CFUs (GM) (C. albicans C-43; 10 MPK PO in PEG-200): 6.78; %SURVIVAL (C. albicans C-43; [21]): 80%; CFUs (GM) (C. albicans C-43; 25 MPK PO in PEG-200): 5.90; %SURVIVAL (C. albicans C-43; [22]): 90%; CFUs (GM) (C. albicans C-43; 50 MPK PO in PEG-200): 5.62
